Earlier results as cited in patent publication US20200281963A1, “HYDROGEN MOLECULE-CONTAINING PROPHYLACTIC OR THERAPEUTIC AGENT FOR OXIDATIVE DAMAGE IN INTRAOCULAR SURGERIES” (priority 2016, published 2020).

amount of hydrogen molecules that can be dissolved (in 1 L of water at 25° C. at 1 atm): 17.5 mL
amount of hydrogen molecules that can be dissolved (concentration) (water at 25° C. at 1 atm): approximately 0.8 mM
Structure (SMILES): [HH] [hydrogen molecules]
